In patent US8431593B2, “Heteroaryl amide derivatives” (H. Lundbeck A/S, priority 2006, dated 2013):
Where two headings read alike, the source gives them in different places. Blank lines part the entries; values can stand above or below the molecule they belong to.

Biological target: T1, P2X7 receptor (Homo sapiens, UniProt Q99572)
T1 construct: host or cells: SH-SY5Y
T1 sequence (Q99572 1-595): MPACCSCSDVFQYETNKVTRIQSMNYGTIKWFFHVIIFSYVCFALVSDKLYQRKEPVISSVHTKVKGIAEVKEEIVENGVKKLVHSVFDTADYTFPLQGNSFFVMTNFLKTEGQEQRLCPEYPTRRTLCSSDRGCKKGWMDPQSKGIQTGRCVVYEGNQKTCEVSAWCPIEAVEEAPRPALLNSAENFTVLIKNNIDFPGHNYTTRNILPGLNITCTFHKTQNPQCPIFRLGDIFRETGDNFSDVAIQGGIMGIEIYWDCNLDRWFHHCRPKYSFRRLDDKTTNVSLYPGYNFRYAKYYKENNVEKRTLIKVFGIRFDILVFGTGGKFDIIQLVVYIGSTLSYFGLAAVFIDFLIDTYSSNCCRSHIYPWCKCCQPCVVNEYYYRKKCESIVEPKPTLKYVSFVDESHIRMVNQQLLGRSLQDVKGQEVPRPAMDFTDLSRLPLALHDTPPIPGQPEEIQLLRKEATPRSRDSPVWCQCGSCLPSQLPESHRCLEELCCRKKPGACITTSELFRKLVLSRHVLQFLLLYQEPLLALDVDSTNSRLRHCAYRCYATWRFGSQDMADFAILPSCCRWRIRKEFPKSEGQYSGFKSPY
Assay: P2X7 calcium mobilization assay, high throughput, antagonist activity (Example 4A)
Type: cell-based
Method in brief: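 Antagonism was measured as calcium mobilization on FLIPR^TETRA after a 1 h room-temperature compound preincubation of dye-loaded cells. Baseline from no-agonist wells was subtracted from each well's maximum RFU.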

[1] = SH-SY5Y cells, 50% decrease in fluorescence response to 80 μM BzATP, read-out: IC50
[2] = 50% decrease in the fluorescence response of cells exposed to 80 μM 2′(3′)-O-(4-benzoyl-benzoyl)adenosine 5′-triphosphate, Example 4A, read-out: IC50
[3] = 50% decrease in the fluorescence response of cells exposed to 80 μM of 2′(3′)-O-(4-benzoyl-benzoyl)adenosine 5′-triphosphate, Example 4A, read-out: IC50
[4] = 50% decrease in the fluorescence response of cells exposed to 80 μM of 2′(3′)-O-(4-benzoyl-benzoyl)adenosine 5′-triphosphate, determined as in Example 4A, read-out: IC50

- IC50 [1]: < 2 µM
SMILES: COC[C@@H]1CCCN1C(=O)Cc1cn2c(C(=O)NCC34CC5CC(CC(C5)C3)C4)cccc2n1 [Compound 171, N-(adamantan-1-ylmethyl)-2-{2-[(2S)-2-(methoxymethyl)pyrrolidin-1-yl]-2-oxoethyl}imidazo[1,2-a]pyridine-5-carboxamide]

- IC50 [2]: < 2 µM
SMILES: CC1(C)[C@@H]2CC[C@@H](CNC(=O)c3cccc4nc(CC(=O)N5C[C@H]6CC5CN6)cn34)[C@H]1C2 (stereo in doubt) [Compound 558, 2-{2-[(1R,4R)-2,5-diazabicyclo[2.2.1]hept-2-yl]-2-oxoethyl}-N-{[(1R,2R,5R)-6,6-dimethylbicyclo [3.1.1]hept-2-yl]methyl}imidazo[1,2-a]pyridine-5-carboxamide]

- IC50 (P2X7 calcium mobilization, Example 4A, 50% decrease in the fluorescence response of cells exposed to 80 μM of (2′(3′)-O-(4-benzoyl-benzoyl)adenosine 5′-triphosephate), read-out: IC50): < 2 µM
SMILES: Cc1ccc(C(CNC(=O)c2cccc3nc(CN4CCCC4)cn23)CC(C)C)cc1 (stereo not shown) [Compound 1048, N-[4-methyl-2-(4-methylphenyl)pentyl]-2-(pyrrolidin-1-ylmethyl) imidazo [1,2-a] pyridine-5-carboxamide]

- IC50 [3]: < 2 µM
SMILES: CC(C)CC(CNC(=O)c1cccc2nc(CN3CC[C@@H](NC(=O)OC(C)(C)C)C3)cn12)C1CCCCC1 (stereo in doubt) [Compound 738, tert-butyl [1-({5-[(2-cyclohexyl-4-methylpentyl)carbamoyl]imidazo [1,2-a]pyridin-2-yl}methyl)pyrrolidin-3-yl]carbamate]

- IC50 [1]: < 2 µM
SMILES: CN(C)CCN(C)C(=O)c1cn2c(C(=O)NCC34CC5CC(CC(C5)C3)C4)cccc2n1 [Compound 91, 5-N-(adamantan-1-ylmethyl)--[2-(dimethylamino)ethyl]-- methylimidazo[1,2-a]pyridine-2,5-dicarboxamide]

- IC50 [1]: < 2 µM
SMILES: CC(O)CCNC(=O)c1cn2c(C(=O)NCC34CC5CC(CC(C5)C3)C4)cccc2n1 (stereo not shown) [Compound 84, 5-N-(adamantan-1-ylmethyl)--(3-hydroxy-butyl)imidazo[1,2-a]pyridine-2,5-dicarboxamide]

- IC50 [1]: < 2 µM
SMILES: O=C(NCC12CC3CC(CC(C3)C1)C2)c1cccc2nc(COC3CCNC3)cn12 (stereo not shown) [Compound 190, N-(adamantan-1-ylmethyl)-2-[(pyrrolidin-3-yloxy)methyl]imidazo[1,2-a]pyridine-5-carboxamide]

- IC50 [3]: < 2 µM
SMILES: CC(COS(C)(=O)=O)c1cn2c(C(=O)NCC34CC5CC(CC(C5)C3)C4)cccc2n1 (stereo not shown) [Compound 741, 2-{5-[(adamantan-1-ylmethyl)carbamoyl]imidazo[1,2-a]pyridin-2-yl}propyl methanesulfonate]

- IC50 [3]: < 2 µM
SMILES: O=C(NCc1cccnc1)c1cn2c(C(=O)NCC34CC5CC(CC(C5)C3)C4)cccc2n1 [Compound 655, 5-N-(adamantan-1-ylmethyl)-2-N-(pyridin-3-ylmethyl) imidazo[1,2-a]pyridine-2,5-dicarboxamide]

- IC50 [1]: < 2 µM
SMILES: O=CN1CCN(C(=O)Cc2cn3c(C(=O)NCC45CC6CC(CC(C6)C4)C5)cccc3n2)CC1 [Compound 167, N-(adamantan-1-ylmethyl)-2-[2-(4-formylpiperazin-1-yl)-2-oxoethyl]imidazo[1,2-a]pyridine-5-carboxamide]

- IC50 [2]: < 2 µM
SMILES: O=C(NCC12CC3CC(CC(C3)C1)C2)c1cccc2nc(C(=O)N3CCOCC3)cn12 [Compound 529, N-(adamantan-1-ylmethyl)-2-(morpholin-4-ylcarbonyl)imidazo[1,2-a]pyridine-5-carboxamide]

- IC50 [3]: < 2 µM
SMILES: CN1CCCC(CNC(=O)c2cn3c(C(=O)NCC45CC6CC(CC(C6)C4)C5)cccc3n2)C1 (stereo not shown) [Compound 668, 5-N-(adamantan-1-ylmethyl)-2-N-[(1-methylpiperidin-3-yl)methyl]imidazo[1,2-a]pyridine-2,5-dicarboxamide]

SMILES: COCCN(C)Cc1cn2c(C(=O)NCC34CC5CC(CC(C5)C3)C4)cccc2n1 [Compound 133, N-(adamantan-1-ylmethyl)-2-{[(2-methoxyethyl)(meth-yl)amino]methyl}imi-dazo[1,2-a]pyridine-5-carboxamide]
- IC50: < 2 µM

- IC50 [3]: < 2 µM
SMILES: N[C@@H]1CCN(Cc2cn3c(C(=O)NCC(CC4CC4)c4ccccc4)cccc3n2)C1 (stereo partly shown) [Compound 782, 2-[(3-aminopyrrolidin-1-yl)methyl]-N-(3-cyclopropyl-2-phenylpropyl) imidazo [1,2-a]pyridine-5-carboxamide]

- IC50 [2]: < 2 µM
SMILES: CC(=O)NC1CCN(C(=O)c2cn3c(C(=O)NC[C@@H]4CC[C@H]5C[C@@H]4C5(C)C)cccc3n2)C1 (stereo partly drawn) [Compound 457, 2-[(3-acetamidopyrrolidin-1-yl)carbonyl]-N-{[(1S,2R,5S)-6,6-dimethylbicyclo[3.1.1]hept-2-yl]methyl}imidazo[1,2-a]pyridine-5-carboxamide]

- IC50 [2]: < 2 µM
SMILES: O=C(CC12CC3CC(CC(C3)C1)C2)Nc1cccc2nc(C(=O)N3CCCC(O)C3)cn12 (stereo not shown) [Compound 418, 2-adamantan-1-yl-N-{2-[(3-hydroxypiperidin-1-yl)carbonyl]imidazo [1,2-a]pyridin-5-yl}acetamide]

- IC50 [4]: < 2 µM
SMILES: CCCCCCCC(CNC(=O)c1cccc2nc(CC(=O)O)cn12)c1ccccc1 (stereo not shown) [Compound 966, {5-[(2-phenylnonyl)carbamoyl]imidazo[1,2-a]pyridin-2-yl} acetic acid]

- IC50 [2]: < 2 µM
SMILES: CC(CO)c1cn2c(C(=O)NCC34CC5CC(CC(C5)C3)C4)cccc2n1 (stereo not shown) [Compound 535, N-(adamantan-1-ylmethyl)-2-(2-hydroxy-1-methylethyl)imidazo[1,2-a]pyridine-5-carboxamide]

- IC50 [1]: < 2 µM
SMILES: N[C@@H]1CCN(Cc2cn3c(C(=O)NCC45CC6CC(CC(C6)C4)C5)cccc3n2)C1 [Compound 69, N-(adamantan-1-ylmethyl)-2-{[(3R)-3-aminopyrrolidin-1-yl]methyl}imidazo[1,2-a]pyridine-5-carboxamide]

- IC50 [4]: < 2 µM
SMILES: O=C(Cc1cn2c(C(=O)NCC3CCCCC3)cccc2n1)NCC1(c2ccc(Cl)cc2)CCCCC1 [Compound 978, 2-[2-({[1-(4-chlorophenyl)cyclohexyl]methyl}amino)-2-oxoethyl]-N-(cyclohexylmethyl) imidazo[1,2-a] pyridine-5-carboxamide]

- IC50 [1]: < 2 µM
SMILES: CC1(O)CCN(C(=O)c2cn3c(C(=O)NCC45CC6CC(CC(C6)C4)C5)cccc3n2)C1 (stereo not shown) [Compound 112, N-(adamantan-1-ylmethyl)-2-[(3-hydroxy-3-methylpyrrolidin-1-yl)carbonyl]imidazo[1,2-a]pyridine-5-carboxamide]

- IC50 [3]: < 2 µM
SMILES: CN(C)CCCNC(=O)c1cn2c(C(=O)NCC34CC5CC(CC(C5)C3)C4)cccc2n1 [Compound 647, 5-N-(adamantan-1-ylmethyl)-2-N-[3-(dimethylamino)propyl]imidazo [1,2-a]pyridine-2,5-dicarboxamide]

- IC50 [4]: < 2 µM
SMILES: CCOC(=O)C(CC1CC1)c1cn2c(C(=O)NCC34CC5CC(CC(C5)C3)C4)cccc2n1 (stereo not shown) [Compound 1001, ethyl 2-{5-[(adamantan-1-ylmethyl)carbamoyl]imidazo[1,2-a]pyridin-2-yl}-3-cyclopropylpropanoate]

- IC50 [3]: < 2 µM
SMILES: CC(c1cn2c(C(=O)NCC34CC5CC(CC(C5)C3)C4)cccc2n1)c1nnn[nH]1 (stereo not shown) [Compound 770, N-(adamantan-1-ylmethyl)-2-[1-(1H-tetrazol-5-yl)ethyl]imidazo [1,2-a]pyridine-5-carboxamide]

- IC50 [3]: < 2 µM
SMILES: CCN(CC)C1CCN(C(=O)c2cn3c(C(=O)NCC45CC6CC(CC(C6)C4)C5)cccc3n2)CC1 [Compound 674, N-(adamantan-1-ylmethyl)-2-{[4-(diethylamino)piperidin-1-yl]carbonyl}imidazo [1,2-a]pyridine-5-carboxamide]
